Laboratory results reported in US20020055458A1, “Method for the prevention and treatment of retinopathy” (priority 2000, published 2002).

What was measured:
[1] = tested on: optic nerve oxygen tension (ONPo2); details: pig; Stefánsson et al., IOVS 1999; cited from earlier work
[2] = tested on: diabetic retinopathy in patients with diabetes mellitus; assay: Retrospective clinical study of progression of diabetic retinopathy in diabetics on glaucoma eye drops; format: in vivo, human; details: for two year event rate (progression of retinopathy): diabetic patients on eye drops for glaucoma or ocular hypertension, 2 years from onset of medication, CAI group n=19, non-CAI group n=12
Description: In a retrospective clinical study, the hypothesis that dorzolamide eye drops (Trusopt®) used bid or tid for glaucoma or ocular hypertension would slow the progression of diabetic retinopathy in patients with diabetes mellitus was tested. Since 1980, a screening program has been in place for diabetic eye disease at the Department of Ophthalmology, University of Iceland, Reykjavik, Iceland. Eye examinations of diabetic patients have been performed annually and examination results have been documented. A retrospective study was undertaken to find those diabetics who were using CAIs or beta-blockers (such as timolol) for either glaucoma or ocular hypertension. These candidates were selected from the general population of the screening program. In total, 31 patients were found. Of these 31, 19 were prescribed CAIs or a combination of CAIs and beta-blockers. The remaining 12 patients were taking a non-CAI medication and served as a control group in the study. The examination findings were reviewed to determine if the changes in retinopathy rating could be associated with CAI use. Also noted was historical information such as length of time since diabetes had been diagnosed, type of medication and time span of usage, visual acuity and other relevant comments. Of those using a CAI, 12 were men and seven were women. The mean age was 67 (range 28-80) for men and 73 (range 62-81) for women. The average time since diagnosis of diabetes mellitus was 14.1 years (SD=9.7 years). The average frequency of check-ups was every 9.1 months (SD=10.7 months). There was an average of 7.4 years of eye examinations and fundus photographs on record (SD=6 years) and the patients were on a CAI for an average of 18.2 months (SD=14.4 months). Of those in the non-CAI (control) group, seven were men and five were women. The mean age was 73 (range 54-82) for men and 75 (range 67-86) for women. The average time since diabetic diagnosis was 15.3 years (SD=7.8 years). The average frequency of check-ups was every 10.9 months (SD=7.9 months). There was an average of 6.2 years of eye examinations and fundus photographs on record (SD=4 years) and the patients were on medication for an average of 58.8 months (SD=52.4 months).

| Compound | effect on optic nerve oxygen tension (ONPo2) [1] | two year event rate (progression of retinopathy) [2] | development of sight-threatening retinopathy during the treatment period ([2]; diabetics in the treated group) | rate of progression of diabetic retinopathy compared with diabetics receiving timolol eye drops and with the total population of diabetics in Iceland ([2]; diabetics using eye drops on a regular basis) | overall event rate (retinopathy change) for the entire observation period ([2]; non-CAI (control) group, 12 diabetic patients, entire observation period) |
| --- | --- | --- | --- | --- | --- |
| CC(=O)Nc1nnc(S(N)(=O)=O)s1 [Acetazolamide, N-[5-(aminosulfonyl)-1,3,4-thiadiazol-2-yl]acetamide] | increased ONPo2 |  |  |  |  |
| CCN[C@H]1C[C@H](C)S(=O)(=O)c2sc(S(N)(=O)=O)cc21 [dorzolamide] | increased ONPo2 | 0% | none | lower rate of progression of diabetic retinopathy |  |
| CC(C)(C)NC[C@H](O)COc1nsnc1N1CCOCC1 [timolol] |  | 8.3% |  |  | 25% |
